Test results taken from article PMC3816707, “Diamidines versus Monoamidines as Anti-Pneumocystis Agents: An in vivo Study” (Pharmaceuticals, 2013).
Where a name gives a salt, the structure may show the parent alone.

What was measured:
[1] = In vitro cytotoxicity, MTT-based cell viability assay; parameters: species or system murine; conditions: mouse, 3T6 embryonal fibroblast cells (adherent); 3T6 murine embryonal fibroblast cell line, MTT, triplicate, mean
Experimental: (§1) In vitro cytotoxicity assays with established cell lines are useful tools for the general screening of chemicals in toxicological studies. […] The procedure, according to the manufacturer recommendations, was based on the colorimetric determination of the succinate dehydrogenase activity by visualization (540 nm) of the conversion of a tetrazolium salt into formazan. With a microplate reader (Thermo Labsystems Multiskan Ascent 354, Waltham, MA, USA), the optical density of each well was measured at 540 nm against the background absorbance whose reference filter was set at 690 nm. Blank controls (culture medium), free-drug controls, and solvent (DMSO) controls were included in each assay. All cytotoxicity assays were set up in triplicate. […] The IC50 parameters were obtained by plotting % inhibition values against the logarithm of concentration for each compound.
(§2) For each compound, the % inhibition of activity against the concentration scale was plotted. The 50% inhibiting concentrations of cell proliferation (IC50) were calculated by locating the x-axis values corresponding to one-half of the absorbance values. The experiments were repeated in triplicate for each substance.

Pneumocystis carinii [2] = assay: In vitro anti-Pneumocystis activity, P. carinii axenic short culture (4 days); assay type: cell-based; conditions: for inhibition of growth at 50 µg/mL / inhibition of growth at 0.1 µg/mL / inhibition of growth at 10 µg/mL / EC50: Pneumocystis carinii, 96 h; for inhibition of growth at 50 µg/mL / Anti-Pneumocystis activity % inhibition vs. free-drug control at 0.1 µg/mL / Anti-Pneumocystis activity % inhibition vs. free-drug control at 10 µg/mL / Anti-Pneumocystis activity % inhibition vs. free-drug control at 50 µg/mL: 4 days axenic culture; for inhibition of growth at 50 µg/mL: read-out: Anti-Pneumocystis activity % inhibition vs. free-drug control at 50 µg/mL; for inhibition of growth at 0.1 µg/mL: read-out: Anti-Pneumocystis activity % inhibition vs. free-drug control at 0.1 µg/mL, 0.1 µg/mL, 4 days axenic culture; for inhibition of growth at 10 µg/mL: read-out: Anti-Pneumocystis activity % inhibition vs. free-drug control at 10 µg/mL, 10 µg/mL, 4 days axenic culture; for EC50: 150 to 1.35 10^-5 µM, read-out: EC50 against P. carinii
Experimental: Drug stock solutions in DMSO (10 mg/mL) were diluted in Dulbecco's Modified Eagle's Medium (DMEM, BioWhittaker) supplemented with 10% heat-inactivated foetal calf serum (FCS, Gibco-BRL) to produce the required drug concentrations. P. carinii axenic short cultures were performed as follows. All the experiments were carried out in 24-well plates with a final volume of 2 mL of DMEM supplemented with 10% of heat-inactivated fetal calf serum (FCS) containing a final inoculum of 10^6 organisms per mL. Plates were incubated for 4 days in an atmosphere of 5% CO2 at 37 °C. Then, P. carinii organisms were collected and quantified after RAL-555 panoptic staining. In parallel with these free-drug growth control wells, the anti-Pneumocystis effect of pentamidine and the other bisbenzamidines considered in this study was investigated in the same conditions. All molecules have been screened at a high (50 µg/mL), a medium (10 µg/mL), and a low (0.1 µg/mL) concentration. All experiments were performed in triplicate and data were statistically processed using Student’s t-test. Two-sided p-values < 0.05 were deemed to be statistically significant.
The parameters of this pharmacodynamic model were calculated by nonlinear least-squares regression techniques using commercial software (Sigma Plot, Systat Software Inc., San Jose, CA, USA).

3T6 fibroblast cell line = assay: In vitro cytotoxicity, MTT-based cell viability assay; parameters: species or system murine; conditions: for Cytotoxicity: 3T6 cell line; for IC50 fold higher than for the reference compound (pentamidine): 3T6 cytotoxicity
Experimental: as §1, §2

[3] = Visual observations of treated rats (behavior, injection site); assay type: in vivo, rat; conditions: for Cutaneous reaction at the site of injections: subcutaneous treatment, data not shown
Pneumocystis carinii [4] = assay: In vivo anti-Pneumocystis activity, P. carinii pneumonia in nude rats; parameters: species or system athymic Lou nu/nu rats; conditions: for % of inhibition versus control rats: once a day for 10 days, P. carinii count in lung homogenates; for In vivo anti-Pneumocystis activity: subcutaneous, 5 and 20 mg/kg/day, 10 days
Experimental: To evaluate the in vivo anti-Pneumocystis activity, drug stock solutions in DMSO (300 mg/mL) were diluted in phosphate buffered saline (PBS, BioWhittaker) to produce the required final drug concentrations just before subcutaneous injection. Seven weeks p.i., animals were divided into groups of 4, and then pentamidine and derivatives 4 and 6 were dosed at 5 or 20 mg/kg by subcutaneous route. The drugs were given once a day for 10 consecutive days. The final concentration of DMSO in diluted drug solutions was maintained between 1.5% and 6%. Control animals received doses of 6%-DMSO in sterile water. Twenty-four hours after the end of the treatment, animals were euthanatized and the lung homogenised in a Stomacher-400 blender as previously described. Quantitation of trophic forms, sporocytes, and cysts was performed on air-dried smears stained with RAL-555 stain [34, 37, 38]. Therapeutic efficacy was assessed by counting P. carinii parasites in lung homogenates and comparing them with those of the untreated controls at the end of the experiment. The results were expressed as percentage of inhibition versus drug-free animal controls and presented as mean and standard error. Data were analyzed using a two-way analysis of variance (PROC MIXED, SAS Institute, Cary, NC, USA), with sex, drug, and their interaction as independent predictors. Due to heterogeneity in parasites count distributions, the first step of the analysis was the selection of the within-subject covariance, based either on likelihood ratio tests or on the Bayesian Information Criterion. Then, tests of the fixed effects were performed. No interaction was found between sex and drug. Therapeutic efficacy was assessed with polynomial contrasts. Regression underlying assumptions were visually inspected with residual plots. Statistical significance was set at α = 0.05.
An in vivo experiment was performed in order to explore whether it reflected in vitro results. The used in vivo model was the athymic Pneumocystis-free Lou nu/nu rats non-surgically inoculated by endo-tracheal route with a suspension of P. carinii organisms. […] Rats developed high infection levels 6–8 weeks post inoculation without secondary fungal or bacterial infection. […] Thus animals were endotracheally infected after 2 weeks of dexamethasone administration (1 mg/L, drinking water) with 10^7 P. carinii organisms. Drugs were administered once a day by subcutaneous route for 10 consecutive days. Untreated animals developed extensive infections at the end of the treatment period. The number of total P. carinii organisms per lung in DMSO control rats was 1.26 ± 0.20 × 10^10. […] On the other hand, whereas showing a strong anti-Pneumocystis activity in vitro, the monoamidine 7 appeared to be poorly potent when administered subcutaneously to Pneumocystis-infected rats, even at the dose of 20 mg/kg/day.

[5] = parameters: method as in PMID 21147326; conditions: in comparison with pentamidine and the diamidine 6; cited from earlier work
[6] = Hill equation, 4 days of culture

SMILES | IC50 [1] | inhibition of growth at 50 µg/mL (Pneumocystis carinii [2]) | inhibition of growth at 0.1 µg/mL (Pneumocystis carinii [2]) | inhibition of growth at 10 µg/mL (Pneumocystis carinii [2]) | Cytotoxicity (3T6 fibroblast cell line) | Anti-Pneumocystis activity % inhibition vs. free-drug control at 0.1 µg/mL (Pneumocystis carinii [2]) | % of inhibition versus control rats (Pneumocystis carinii [4]; 5 mg/kg/day subcutaneous) | % of inhibition versus control rats (Pneumocystis carinii [4]; 20 mg/kg/day subcutaneous) | Slope S (steepness of the concentration-effect curve) (Pneumocystis carinii [2]; [6]) | EC50 (Pneumocystis carinii [2]; [6]) | melting point | other results
N=C(N)c1ccc(N2CCN(c3ccccc3)CC2)cc1 [Compound 3] | 56.06 ± 0.39 µM | 99 ± 0.1% | 8.3 ± 14.4% | 99 ± 0.1% | – | – | – | – | – | – | – | –
CN(CCNc1ccc(C(=N)N)cc1)c1ccc(C(=N)N)cc1 [Compound 8] | 2.48 ± 0.35 µM | 99% | 15 ± 12.5% | 99% | cytotoxicity similar to that of pentamidine | – | – | – | – | – | – | –
CN(CCNc1ccccc1)c1ccc(C(=N)N)cc1 [Compound 9, N-(Benzamidine-4-yl)-N-methyl-N′-phenylethane-1,2-diamine hydrochloride salt] | 3.11 ± 0.09 µM | 88.7 ± 2.5% | – | 86.3 ± 4% | cytotoxicity similar to that of pentamidine | inactive | – | – | – | – | – | –
N=C(N)c1ccc(NCCNc2ccc(C(=N)N)cc2)cc1 [Compound 6, N,N′-bis(benzamidine-4-yl)ethane-1,2-diamine] | 30.2 ± 1.14 µM | 98.7 ± 0.6% | 29.8 ± 19.7% | 97.7 ± 0.6% | no cytotoxicity | – | 78.4% | 86.2% | 1.49 ± 0.31 | 0.6 ± 0.12 µM | – | Cutaneous reaction at the site of injections [3]: did not develop any cutaneous reaction; Behavior during the treatment ([3]; visual observations): quite normal behavior; In vivo anti-Pneumocystis activity (Pneumocystis carinii [4]): strong anti-Pneumocystis activity comparable to that of pentamidine at both doses; IC50 fold higher than for the reference compound (pentamidine) (3T6 fibroblast cell line): 15 fold
Nc1ccc(N2CCN(c3ccccc3)CC2)cc1 [Compound 5, 1-(4-Aminophenyl)-4-phenylpiperazine] | 10.2 ± 0.6 µM | – | – | – | – | inactive | – | – | – | – | 146 to 149 °C | Anti-Pneumocystis activity % inhibition vs. free-drug control at 10 µg/mL (Pneumocystis carinii [2]): inactive; Anti-Pneumocystis activity % inhibition vs. free-drug control at 50 µg/mL (Pneumocystis carinii [2]): inactive
Nc1ccc(N2CCN(c3ccc(N)cc3)CC2)cc1 [Compound 4] | 40.8 ± 4.4 µM | – | – | – | – | inactive | – | – | – | – | – | Anti-Pneumocystis activity % inhibition vs. free-drug control at 10 µg/mL (Pneumocystis carinii [2]): inactive; Anti-Pneumocystis activity % inhibition vs. free-drug control at 50 µg/mL (Pneumocystis carinii [2]): inactive
N=C(N)c1ccc(NCCNc2ccccc2)cc1 (as salt: sulfate) [Compound 7, N-(Benzamidine-4-yl)-N′-phenylethane-1,2-diamine sulfate salt] | – | – | – | – | – | – | – | – | – | – | 191 to 193 °C | –
N=C(N)c1ccc(OCCCCCOc2ccc(C(=N)N)cc2)cc1 [Compound 1, pentamidine, reference compound] | 1.98 ± 0.2 µM | 99 ± 0.1% | 89% | 99 ± 0.1% | – | – | 84.6% | 95.3% | 1.09 ± 0.23 | 0.08 ± 0.01 µM | – | Cutaneous reaction at the site of injections [3]: deleterious wounds could be seen on the skin
N=C(N)c1ccc(NCCNc2ccccc2)cc1 [Compound 7, N-(Benzamidine-4-yl)-N′-phenylethane-1,2-diamine sulfate salt] | 40.6 ± 1.3 µM | 99.5 ± 0.4% | 42 ± 12.5% | 98.7 ± 0.6% | no cytotoxicity | – | 43.1% | 54.3% | 2.00 ± 0.54 | 0.4 ± 0.08 µM | – | In vivo anti-Pneumocystis activity (Pneumocystis carinii [4]): poorly potent; IC50 fold higher than for the reference compound (pentamidine) (3T6 fibroblast cell line): 20 fold; Elimination from plasma [5]: more rapidly eliminated from plasma; Emax (Pneumocystis carinii [2]; Hill equation, maximum effect, 4 days of culture): 99.37 ± 2.54%
CN(CCNc1ccccc1)c1ccc(C(=N)N)cc1 (as salt: hydrochloride) [Compound 9, N-(Benzamidine-4-yl)-N-methyl-N′-phenylethane-1,2-diamine hydrochloride salt] | – | – | – | – | – | – | – | – | – | – | 212 to 215 °C | –
